One data set has as its system galium (GALAP). Kind of data set: Test 22 growth chamber, postemergence. In kind it is in vivo, Galium aparine. Particulars: 25 DAA. The protocol:
A test was conducted to evaluate the effects on winter barley (HORVW, Hordeum vulgare L.), winter wheat (TRZAW, Triticum aestivum L.), and several weed species of mixtures of Compound 2 with the commercial herbicides (2,4-dichlorophenoxy)acetic acid (2,4-D) and (4-chloro-2-methylphenoxy)acetic acid (MCPA), auxin mimics. […] Plants were treated postemergence at the 2-4 leaf growth stage, except KCHSC, SASKR and STEME which were in the 4-8 leaf growth stage. Each treatment was replicated one time. […] Plants were watered as needed. […] Results are from single replicates.

Another data set has as its system wild mustard (SINAR). Kind of data set: Test 23 growth chamber, postemergence. In kind it is in vivo, Sinapis arvensis. The settings on record: 21 DAA. The protocol: (§1) A test was conducted to evaluate the effects on winter barley (HORVW, Hordeum vulgare L.), winter wheat (TRZAW, Triticum aestivum L.), and several weed species of mixtures of Compound 2 with the commercial herbicides (2,4-dichlorophenoxy)acetic acid (2,4-D) and (4-chloro-2-methylphenoxy)acetic acid (MCPA), auxin mimics. […] Plants were treated postemergence at the 2-4 leaf growth stage, and each treatment was replicated three times. […] Plants were watered as needed. […] Results are means of the three replicates.

A further data set has as its system winter barley (HORVW). Kind of data set: Test 21 growth chamber, postemergence. The settings on record: 19 DAA. In kind it is in vivo, Hordeum vulgare. The protocol:
A test was conducted to evaluate the effects on winter barley (HORVW, Hordeum vulgare L.), winter wheat (TRZAW, Triticum aestivum L.), and several weed species, of mixtures of Compound 2 with the commercial herbicide (2,4-dichlorophenoxy)acetic acid (2,4-D), an auxin mimic. […] Plants were treated postemergence at the 2-4 leaf growth stage, and each treatment was replicated one time. […] Plants were watered as needed. […] Results are from single replicates.

The next data set concerns wild chamomile (MATCH). Kind of data set: Test 23 growth chamber, postemergence. The class given is in vivo, Matricaria chamomilla. The settings on record: 21 DAA. The protocol:
as §1

The test system of a further data set is giant foxtail (SETFA). Kind of data set: Test 2 field trial, preemergence. The class given is in vivo, Setaria faberi. The arrangement: scale not given here. From the text:
Corn seeds (hybrid ‘Pioneer 31G96’) were planted in mid spring season, 3.8 cm deep in a clay loam soil having 2% organic matter and a pH of 6.6. Plots were 6.1 m long by 3.0 m wide with rows spaced 76 cm apart. Seeds were spaced 15 cm apart within the rows. The field was managed using conventional tillage practices. […] A few of the weed species could not be evaluated at every timing. […] Results are the means of the three replicates.

In another data set the test system is red deadnettle (LAMPU). Kind of data set: Test 9 field trial, emerged weeds before corn planting. In kind it is in vivo, Lamium purpureum. The settings on record: g a.i./ha: Cpd 2 100, Glyphosate 1540, Paraquat 1150. The protocol: Corn seeds (hybrid ‘Pioneer 34M91 RR’) were planted in mid spring season, about 3.8 cm deep in a silty clay loam soil having a pH of 6.7. Plots were 9.1 m long by 3.0 m. The field was managed using no-till practices. […] Compound 2 and paraquat treatments, alone and in combination, also included a surfactant. Glyphosate, alone and with Compound 2, included ammonium sulfate in the treatment mixture. […] The effects on the weeds in the treated plots and untreated control plots were recorded 7, 14, 23, 30 and 57 days after application. Most of the weed species could not be evaluated at every timing. Corn response was only evaluated 57 days after application. […] Results are the means of the three replicates.

The subject of a further data set is yellow nutsedge (CYPES). Kind of data set: Test 14 field trial, preemergence, growth as percent of control. In kind it is in vivo, Cyperus esculentus. From the text:
Corn seeds (hybrid ‘Pioneer 31G96 RR’) were planted in mid spring season, 3.8 cm deep in a clay loam soil having 2% organic matter and a pH of 6.6. Plots were 6.1 m long by 3.0 m wide with rows spaced 76 cm apart. Seeds were spaced 15 cm apart within the rows. The field was managed using conventional tillage practices. […] Yellow nutsedge was only evaluated 19 and 28 days after application, and ivyleaf morningglory could only be evaluated 28 days after application. […] Results are the means of the three replicates. This growth inhibition data was converted to results in the form of “plant growth as a percent of control plant growth” using the calculation “100 minus growth inhibition”. […] For “growth as a percent of control” data, Colby's Equation calculates the expected additive effect of herbicidal mixtures having two active ingredients as follows:
Ga+b=GaGb/100 • wherein Ga+b is the growth as a percent of control of plants treated with the mixture expected from additive contribution of the individual components, • Ga is the observed growth as a percent of control of plants treated with the first active ingredient at the same use rate as in the mixture, and • Gb is the observed growth as a percent of control of plants treated with the second active ingredient at the same use rate as in the mixture. For mixtures having three active ingredients, Colby's Equation to calculate the expected additive effect of herbicidal mixtures is as follows:
Ga+b+c=GaGbGc/10,000 • wherein Ga and Gb are as defined above and • Ga+b+c is the growth as a percent of control of plants treated with the mixture expected from additive contribution of the individual components, and • Gc is the observed growth as a percent of control of plants treated with the third active ingredient at the same use rate as in the mixture. When these two forms of Colby's Equation are used, if the observed effects on weeds are less than the expected values, the mixture is synergistic.

A further data set has as its system redroot pigweed (AMARE). Kind of data set: Test 7 field trial, preemergence. The class given is in vivo, Amaranthus retroflexus. The protocol: Plots were 7.6 m long by 3.0 m wide with rows spaced 76 cm apart. Seeds were spaced 15 cm apart within the rows. The field was managed using conventional tillage practices. […] Wild radish was evaluated 14 and 28 days after application. […] Results are the means of the three replicates.

[1] abbreviates: 2,4-D or MCPA alone 250 g a.i./ha.
The mark [2] stands for this setting: 18 DAA, g a.i./ha: Cpd 2 25, Atrazine 250.
[3] abbreviates: 18 DAA, g a.i./ha: Cpd 2 50, Atrazine 500.
Setting [4] is: 18 DAA, g a.i./ha: Cpd 2 75, Atrazine 750.
Where [5] appears, read: 18 DAA, g a.i./ha: Cpd 2 100, Atrazine 1000.
Where [6] appears, read: 18 DAA, g a.i./ha: Cpd 2 150, Atrazine 1500.
The mark [7] stands for this setting: 28 DAA, g a.i./ha: Cpd 2 25, Atrazine 250.
Where [8] appears, read: 28 DAA, g a.i./ha: Cpd 2 50, Atrazine 500.
Where [9] appears, read: 28 DAA, g a.i./ha: Cpd 2 75, Atrazine 750.
[10] abbreviates: 28 DAA, g a.i./ha: Cpd 2 100, Atrazine 1000.
[11] abbreviates: 28 DAA, g a.i./ha: Cpd 2 150, Atrazine 1500.

The source of these data is US20100285959A1, “HERBICIDAL MIXTURES” (priority 2006, published 2010).

For the compound `O=C(O)COc1ccc(Cl)cc1Cl` [2,4-D, (2,4-dichlorophenoxy)acetic acid], in the data set on galium (GALAP) (setting [1]), the “Postemergence GALAP Obs” value amounted to 30. For the same compound, the “Postemergence SINAR Obs” value in the data set on wild mustard (SINAR) (setting [1]) was 65. In addition, the “Postemergence HORVW Obs” value with winter barley (HORVW) (2,4-D alone 125 g a.i./ha) and in the data set on winter barley (HORVW) (2,4-D alone 250 g a.i./ha) was 25 throughout. Moreover, the “Postemergence MATCH Obs” value in the data set on wild chamomile (MATCH) (setting [1]) stood at 60.
With `CCNc1nc(Cl)nc(NC(C)C)n1` [Atrazine, atrazine, reference compound], the “SETFA Obs” value with giant foxtail (SETFA) (setting [2]) was 20; with giant foxtail (SETFA) (setting [3]), 25; in the data set with giant foxtail (SETFA) (setting [4]) it was 40; in the data set with giant foxtail (SETFA) (setting [5]), 43; in the data set on giant foxtail (SETFA) (setting [6]), 38; in the data set on giant foxtail (SETFA) (setting [7]), 37. The “SETFA Obs” value in the data set on giant foxtail (SETFA) (setting [8]) was 67; in the data set with giant foxtail (SETFA) (setting [9]), 83; in the data set on giant foxtail (SETFA) (setting [10]), 87; in the data set with giant foxtail (SETFA) (setting [11]), 88; in the data set with giant foxtail (SETFA) (55 DAA, g a.i./ha: Cpd 2 25, Atrazine 250) it was 35; with giant foxtail (SETFA) (55 DAA, g a.i./ha: Cpd 2 50, Atrazine 500), 60. Further, the “SETFA Obs” value was determined as 58 in the data set with giant foxtail (SETFA) (55 DAA, g a.i./ha: Cpd 2 75, Atrazine 750); 65 with giant foxtail (SETFA) (55 DAA, g a.i./ha: Cpd 2 100, Atrazine 1000); 80 in the data set with giant foxtail (SETFA) (55 DAA, g a.i./ha: Cpd 2 150, Atrazine 1500).
Consider `COC(=O)c1nc(C2CC2)nc(N)c1Cl` [Compound 2, methyl 6-amino-5-chloro-2-cyclopropyl-4-pyrimidinecarboxylate], for which the “LAMPU Obs” value with red deadnettle (LAMPU) (7 DAA) is 45%; with red deadnettle (LAMPU) (14 DAA), 23%; in the data set on red deadnettle (LAMPU) (23 DAA) it was 58%; in the data set with red deadnettle (LAMPU) (30 DAA), 65%. Besides, the “Obs growth % of control” value was 85% with yellow nutsedge (CYPES) (19 DAA, 75 g a.i./ha); 78% in the data set with yellow nutsedge (CYPES) (19 DAA, 100 g a.i./ha); 85% in the data set with yellow nutsedge (CYPES) (28 DAA, 75 g a.i./ha); 90% with yellow nutsedge (CYPES) (28 DAA, 100 g a.i./ha). Further, the “Postemergence GALAP Obs” value in the data set with galium (GALAP) (Cpd 2 alone 4 g a.i./ha) turned out to be 65; in the data set with galium (GALAP) (Cpd 2 alone 8 g a.i./ha) it was 90; in the data set with galium (GALAP) (Cpd 2 alone 16 g a.i./ha), 100. Further, the “Postemergence SINAR Obs” value in the data set on wild mustard (SINAR) (Cpd 2 alone 4 g a.i./ha) came out at 43; in the data set with wild mustard (SINAR) (Cpd 2 alone 8 g a.i./ha), 53; in the data set on wild mustard (SINAR) (Cpd 2 alone 16 g a.i./ha), 55. Moreover, the “AMARE Obs” value in the data set with redroot pigweed (AMARE) (14 DAA, 125 g a.i./ha) is on record as 97%; in the data set with redroot pigweed (AMARE) (14 DAA, 250 g a.i./ha) it was 100%; with redroot pigweed (AMARE) (14 DAA, 500 g a.i./ha), 100%; in the data set with redroot pigweed (AMARE) (28 DAA, 125 g a.i./ha), 92%; in the data set with redroot pigweed (AMARE) (28 DAA, 250 g a.i./ha) it was 100%; in the data set with redroot pigweed (AMARE) (28 DAA, 500 g a.i./ha), 100%. Also, the “AMARE Obs” value in the data set with redroot pigweed (AMARE) (62 DAA, 125 g a.i./ha) was 80%; in the data set with redroot pigweed (AMARE) (62 DAA, 500 g a.i./ha), 100%. Also, the “Postemergence HORVW Obs” value in the data set with winter barley (HORVW) (Cpd 2 alone 16 g a.i./ha) was 30. Also, the “SETFA Obs” value in the data set on giant foxtail (SETFA) (setting [2]) turned out to be 13; in the data set on giant foxtail (SETFA) (setting [3]) it was 22; in the data set with giant foxtail (SETFA) (setting [4]), 32; in the data set on giant foxtail (SETFA) (setting [5]) it was 35; in the data set on giant foxtail (SETFA) (setting [6]), 43; with giant foxtail (SETFA) (setting [7]) it was 5. Besides, the “SETFA Obs” value is 10 with giant foxtail (SETFA) (setting [8]), 30 in the data set with giant foxtail (SETFA) (setting [9]), 23 in the data set with giant foxtail (SETFA) (setting [10]) and 65 in the data set with giant foxtail (SETFA) (setting [11]). In addition, the entries for the “Postemergence MATCH Obs” value in the data set with wild chamomile (MATCH) (Cpd 2 alone 4 g a.i./ha), in the data set with wild chamomile (MATCH) (Cpd 2 alone 8 g a.i./ha) and in the data set with wild chamomile (MATCH) (Cpd 2 alone 16 g a.i./ha) were 52, 63 and 75, respectively.
Regarding `O=C(O)CNCP(=O)(O)O` [Glyphosate], the “LAMPU Obs” value in the data set on red deadnettle (LAMPU) (7 DAA) amounted to 55%; with red deadnettle (LAMPU) (14 DAA) it was 60%; with red deadnettle (LAMPU) (23 DAA), 77%; in the data set on red deadnettle (LAMPU) (30 DAA) it was 79%; in the data set on red deadnettle (LAMPU) (57 DAA), 95%.
As to `CCc1cccc(C)c1N(C(=O)CCl)[C@@H](C)COC` [S-Metolachlor, S-metolachlor, reference compound], the “Obs growth % of control” value in the data set on yellow nutsedge (CYPES) (28 DAA, 1870 g a.i./ha) is 8%. The “AMARE Obs” value came out at 97% in the data set on redroot pigweed (AMARE) (14 DAA, 1000 g a.i./ha); 78% in the data set on redroot pigweed (AMARE) (28 DAA, 1000 g a.i./ha); 15% with redroot pigweed (AMARE) (62 DAA, 1000 g a.i./ha).
